Test results as given in patent US20240293392A1, “INHIBITOR COMPOUNDS” (NeoPhore Limited, priority 2021, published 2024).
Where a name gives a salt, the structure may show the parent alone.

Tests used:
[1] = target: T1, recombinant N-terminal MLH1 (residues 15-340) (Homo sapiens, UniProt P40692); experiment: Fluorescence Polarisation Assay for MLH1; format: binding; details: fluorescence polarisation probe displacement; 100 nM N-terminal MLH1, 5 nM probe compound
T1 construct: recombinant N-terminal MLH1 (residues 15-340)
T1 sequence (P40692 15-340): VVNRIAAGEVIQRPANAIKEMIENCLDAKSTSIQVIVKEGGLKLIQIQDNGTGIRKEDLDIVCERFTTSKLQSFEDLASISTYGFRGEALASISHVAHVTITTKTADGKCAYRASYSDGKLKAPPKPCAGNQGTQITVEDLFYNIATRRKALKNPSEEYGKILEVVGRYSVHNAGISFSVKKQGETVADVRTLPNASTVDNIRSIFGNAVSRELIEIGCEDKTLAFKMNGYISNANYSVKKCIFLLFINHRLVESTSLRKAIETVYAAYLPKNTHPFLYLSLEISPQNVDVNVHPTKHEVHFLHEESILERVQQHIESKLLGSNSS
How it was run: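 FP displacement assay: 100 nM MLH1 (residues 15-340) preincubated 30 min at room temperature with compound in 25 mM HEPES pH 7.5, 250 mM NaCl, 10 mM MgCl2, 0.01% Triton X-100, 5 mM DTT, then 5 nM rhodamine-labelled probe added and read immediately. Data normalised to no-inhibitor and no-enzyme controls.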

[2] = target: T2, recombinant N-terminal PMS2 (residues 1-365) (Homo sapiens, UniProt P54278); experiment: Fluorescence Polarisation Assay for PMS2; format: binding; details: fluorescence polarisation probe displacement; 10 nM N-terminal PMS2, 5 nM probe compound; read-out: PMS2 IC50
T2 construct: recombinant N-terminal PMS2 (residues 1-365)
T2 sequence (P54278 1-365): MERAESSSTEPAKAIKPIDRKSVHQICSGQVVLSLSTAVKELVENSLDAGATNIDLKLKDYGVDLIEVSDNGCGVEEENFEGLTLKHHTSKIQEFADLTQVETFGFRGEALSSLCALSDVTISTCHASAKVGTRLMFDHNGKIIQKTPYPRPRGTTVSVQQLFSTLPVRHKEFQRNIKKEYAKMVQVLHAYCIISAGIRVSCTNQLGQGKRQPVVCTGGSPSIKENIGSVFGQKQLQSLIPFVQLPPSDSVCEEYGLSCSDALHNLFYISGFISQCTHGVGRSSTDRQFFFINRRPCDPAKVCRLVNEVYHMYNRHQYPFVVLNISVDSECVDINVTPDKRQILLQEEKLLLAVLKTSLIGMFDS
How it was run: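 Competition fluorescence polarisation with 10 nM N-terminal PMS2 and 5 nM fluorescent probe (final), read after 1 h at room temperature following 30 min compound pre-incubation. Data normalised to no-inhibitor and no-enzyme controls; single-point screening or serial dilutions for potency.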

IC50 [1] [nM] | IC50 [2] [nM] | SMILES
1000 to 10000 | 1000 to 10000 | O=C(c1c(O)cc(O)cc1OCc1ccccc1)N1Cc2cccc(OC3CCOC3)c2C1 (stereo not drawn) [Example 88, (2-(Benzyloxy)-4,6-dihydroxyphenyl)(4-((tetrahydrofuran-3-yl)oxy)isoindolin-2-yl)methanone]
< 1000 | < 1000 | O=C(c1c(O)cc(O)cc1OCc1ccccc1)N1Cc2cccc(OCc3cncnc3)c2C1 [Example 89, (2-(Benzyloxy)-4,6-dihydroxyphenyl)(4-(pyrimidin-5-ylmethoxy)isoindolin-2-yl)methanone]
1000 to 10000 | 1000 to 10000 | O=C(c1c(O)cc(O)cc1OCc1ccccc1)N1Cc2cccc(OCC3CNC3)c2C1 [Example 90, (4-(Azetidin-3-ylmethoxy)isoindolin-2-yl)(2-(benzyloxy)-4,6-dihydroxyphenyl) methanone]
1000 to 10000 | < 1000 | N#Cc1cccc2c1CN(C(=O)c1c(O)cc(O)cc1OCc1ccccc1)C2 [Example 91, 2-(2-(Benzyloxy)-4,6-dihydroxybenzoyl)isoindoline-4-carbonitrile]
1000 to 10000 | 1000 to 10000 | N#CC1CN(c2cccc3c2CN(C(=O)c2c(O)cc(O)cc2OCc2ccccc2)C3)C1 [Example 92, 1-(2-(2-(Benzyloxy)-4,6-dihydroxybenzoyl)isoindolin-4-yl)azetidine-3-carbonitrile]
< 1000 | 1000 to 10000 | Nc1cccc2c1CN(C(=O)c1c(O)cc(O)cc1OCc1ccccc1)C2 [Example 93, (4-Aminoisoindolin-2-yl)(2-(benzyloxy)-4,6-dihydroxyphenyl)methanone]
1000 to 10000 | 1000 to 10000 | CC(=O)Nc1cccc2c1CN(C(=O)c1c(O)cc(O)cc1OCc1ccccc1)C2 [Example 94, N-(2-(2-(benzyloxy)-4,6-dihydroxybenzoyl)isoindolin-4-yl)acetamide]
1000 to 10000 | 1000 to 10000 | CC(=O)NCc1cccc2c1CN(C(=O)c1c(O)cc(O)cc1OCc1ccccc1)C2 [Example 95, N-((2-(2-(Benzyloxy)-4,6-dihydroxybenzoyl)isoindolin-4-yl)methyl)acetamide]
< 1000 | > 10000 | O=C(c1c(O)cc(O)cc1OCc1cccnc1)N1Cc2cccc(NC3CCOC3)c2C1 (stereo not drawn) [Example 96, (2,4-dihydroxy-6-(pyridin-3-ylmethoxy)phenyl)(4-((tetrahydrofuran-3-yl)amino)isoindolin-2-yl)methanone]
< 1000 | 1000 to 10000 | O=C(c1c(O)cc(O)cc1OCc1ccncc1)N1Cc2cccc(NC3CCOC3)c2C1 (stereo not drawn) [Example 97, (2,4-Dihydroxy-6-(pyridin-4-ylmethoxy)phenyl)(4-((tetrahydrofuran-3-yl)amino)isoindolin-2-yl)methanone]
1000 to 10000 | > 10000 | O=C(c1c(O)cc(O)cc1OCC1CCOCC1)N1Cc2cccc(NC3CCOC3)c2C1 (stereo not drawn) [Example 98, (2,4-Dihydroxy-6-((tetrahydro-2H-pyran-4-yl)methoxy)phenyl)(4-((tetrahydrofuran-3-yl)amino)isoindolin-2-yl)methanone]
1000 to 10000 | > 10000 | O=C(c1c(O)cc(O)cc1OCc1cccnn1)N1Cc2cccc(NC3CCOC3)c2C1 (stereo not drawn) [Example 99, (2,4-Dihydroxy-6-(pyridazin-3-ylmethoxy)phenyl)(4-((tetrahydrofuran-3-yl)amino)isoindolin-2-yl)methanone]
1000 to 10000 | 1000 to 10000 | Nc1cccc2c1CN(C(=O)c1c(O)cc(O)cc1OCc1ccccc1)CC2 [Example 100, 8-Amino-3,4-dihydroisoquinolin-2(1H)-yl(2-(benzyloxy)-4,6-dihydroxyphenyl)methanone]
1000 to 10000 | 1000 to 10000 | CC(=O)Nc1cccc2c1CN(C(=O)c1c(O)cc(O)cc1OCc1ccccc1)CC2 [Example 101, N-(2-(2-(benzyloxy)-4,6-dihydroxybenzoyl)-1,2,3,4-tetrahydroisoquinolin-8-yl)acetamide]
> 10000 | > 10000 | O=C(Nc1cccc2c1CN(C(=O)c1c(O)cc(O)cc1OCc1ccccc1)CC2)C1CCOC1 (stereo not drawn) [Example 102, N-(2-(2-(Benzyloxy)-4,6-dihydroxybenzoyl)-1,2,3,4-tetrahydroisoquinolin-8-yl) tetrahydrofuran-3-carboxamide]
< 1000 | < 1000 | CC(C)(C)OC(=O)NCCCCCN1CCN(Cc2ccc3c(c2)CN(C(=O)c2c(O)cc(O)cc2OCc2ccccc2)C3)CC1 [Example 103, t-Butyl (5-(4-((2-(2-(benzyloxy)-4,6-dihydroxybenzoyl)isoindolin-5-yl)methyl)piperazin-1-yl)pentyl)carbamate]
< 1000 | < 1000 | NCCCCCN1CCN(Cc2ccc3c(c2)CN(C(=O)c2c(O)cc(O)cc2OCc2ccccc2)C3)CC1 [Example 104, (5-((4-(5-Aminopentyl)piperazin-1-yl)methyl)isoindolin-2-yl)(2-(benzyloxy)-4,6 dihydroxyphenyl)methanone hydrochloride]
< 1000 | 1000 to 10000 | O=C(c1c(O)cc(O)cc1OCc1ccccc1)N1Cc2cccc(NCC3CCOC3)c2C1 (stereo not drawn) [Example 112, (2-(Benzyloxy)-4,6-dihydroxyphenyl)(4-(((tetrahydrofuran-3-yl)methyl)amino)isoindolin-2-yl)methanone]
< 1000 | > 10000 | CN(C)C(=O)N1CCC(Nc2cccc3c2CN(C(=O)c2c(O)cc(O)cc2OCc2ccccc2)CC3)C1 (stereo not drawn) [Example 113, 3-((2-(2-(Benzyloxy)-4,6-dihydroxybenzoyl)-1,2,3,4-tetrahydroisoquinolin-8-yl)amino)-N,N-dimethylpyrrolidine-1-carboxamide]
1000 to 10000 | > 10000 | CN1CCC(Nc2cccc3c2CN(C(=O)c2c(O)cc(O)cc2OCc2ccccc2)CC3)CC1=O (stereo not drawn) [Example 114, 4-((2-(2-(Benzyloxy)-4,6-dihydroxybenzoyl)-1,2,3,4-tetrahydroisoquinolin-8-yl)amino)-1-methylpiperidin-2-one]
1000 to 10000 | 1000 to 10000 | O=C(c1c(O)cc(O)cc1OCc1ccccc1)N1CCc2ncnc(N[C@H]3CCOC3)c2C1 [Example 115, (S)-(2-(Benzyloxy)-4,6-dihydroxyphenyl)(4-((tetrahydrofuran-3-yl)amino)-7,8-dihydropyrido[4,3-d]pyrimidin-6(5H)-yl)methanone]
1000 to 10000 | 1000 to 10000 | O=C(c1c(O)cc(O)cc1OCc1ccccc1)N1CCc2ccc(F)c(NC3CCOC3)c2C1 (stereo not drawn) [Example 116, (2-(Benzyloxy)-4,6-dihydroxyphenyl)(7-fluoro-8-((tetrahydrofuran-3-yl)amino)-3,4-dihydroisoquinolin-2(1H)-yl)methanone]
< 1000 | 1000 to 10000 | Cn1cc(Nc2cccc3c2CN(C(=O)c2c(O)cc(O)cc2OCc2ccccc2)CC3)cn1 [Example 117, (2-(Benzyloxy)-4,6-dihydroxyphenyl)(8-((1-methyl-1H-pyrazol-4-yl)amino)-3,4-dihydroisoquinolin-2(1H)-yl)methanone]
1000 to 10000 | 1000 to 10000 | O=C(c1c(O)cc(O)cc1OCc1ccccc1)N1CCc2cccc(Nc3cccnc3)c2C1 [Example 118, (2-(Benzyloxy)-4,6-dihydroxyphenyl)(8-(pyridin-3-ylamino)-3,4-dihydroisoquinolin-2(1H)-yl)methanone]
1000 to 10000 | 1000 to 10000 | O=C(c1c(O)cc(O)cc1OCc1ccccc1)N1CCc2cccc(Nc3cnccn3)c2C1 [Example 119, (2-(Benzyloxy)-4,6-dihydroxyphenyl)(8-(pyrazin-2-ylamino)-3,4-dihydroisoquinolin-2(1H)-yl)methanone]
< 1000 | 1000 to 10000 | O=C(c1c(O)cc(O)cc1OCc1ccccc1)N1CCc2cccc(Nc3ccnnc3)c2C1 [Example 120, (2-(Benzyloxy)-4,6-dihydroxyphenyl)(8-(pyridazin-4-ylamino)-3,4-dihydroisoquinolin-2(1H)-yl)methanone]
< 1000 | < 1000 | CN1CCN(Cc2cc3c(c(N[C@H]4CCOC4)c2)CN(C(=O)c2c(O)cc(O)cc2OCc2ccccc2)CC3)CC1 [Example 121, (S)-(2-(Benzyloxy)-4,6-dihydroxyphenyl)(6-((4-methylpiperazin-1-yl)methyl)-8-((tetrahydrofuran-3-yl)amino)-3,4-dihydroisoquinolin-2(1H)-yl)methanone]
